Results taken from patent US7112602B2, “Methods of treating undesired angiogenesis with 2-methyl-EM-138” (The Children's Medical Center Corporation, priority 1998, dated 2006).
Marks after values point to notes of the source that are not given here.

How the values were obtained:
B16-BL6 melanoma cells [1] = assay: B16-BL6 melanoma pulmonary metastasis model, intraperitoneal treatment; assay type: in vivo, C57B1/6 mice; conditions: for angiogenesis inhibitory activity (comparison in words): B16-BL6 metastasis studies; for angiogenesis inhibitory activity (comparison in words) / T/C (ratio of lung metastases of treated vs. control animals) / Mean Number of Pulmonary Metastases / % Inhibition / IC50 (50% inhibition of surface metastasis): i.p.; for T/C (ratio of lung metastases of treated vs. control animals): 0.4 mmol/kg in 2.8% DMSO; for T/C (ratio of lung metastases of treated vs. control animals) / % Inhibition: from 72 hours after tumor cells, day 14; for Mean Number of Pulmonary Metastases / % Inhibition: 1.0 ml of 5.0 mg/ml in 2.8% DMSO; for Mean Number of Pulmonary Metastases: four times a day from 72 hours after tumor cells, surface lung metastases counted day 14; for % Inhibition: versus DMSO control, p < 0.01; for IC50 (50% inhibition of surface metastasis): varying doses, average of three experiments, 7-R-(+) tested once at each dose, up to 0.8 mmol/kg; for anti-tumor activity (summary in words): summary of Tables 1 and 2, at the tested doses
Experimental: B16-BL6 melanoma cells (5×10^4) were injected intravenously into the tail veins of C57B1/6 mice. The mice were given intraperitoneal (i.p.) treatments of either 1.0 ml 2.8% DMSO alone (control), 1.0 ml (5.0 mg/ml 2.8% DMSO) 2-phthalimidinoglutaric acid (EM-138) in DMSO, or 1.0 ml (5.0 mg/ml 2.8%) 2-methyl-2-phthalimidinoglutaric acid (2-Me-EM-138) in DMSO four times a day beginning 72 hours after injection of the tumor cells. Fourteen days after tumor cell inoculation, the lungs were removed from the mice and the surface pulmonary metastases were counted.
B16-BL6 melanoma cells (5×10^4) were injected intravenously into the tail veins of C57B1/6 mice. The mice were given intraperitoneal (i.p.) treatments of either 1.0 ml 2.8% DMSO alone (control), 1.0 ml (5.0 mg/ml) DL-2-methyl-2-phthalimidinoglutaric acid (racemate) in 2.8% DMSO, 1.0 ml (5.0 mg/ml) (R)-(+)-2-methyl-2-phthalimidinoglutaric acid (JS-2-13-P1) in 2.8% DMSO, or (S)-(−)-2-methyl-2-phthalimidinoglutaric acid (JS-2-13-P2) in 2.8% DMSO four times a day beginning 72 hours after injection of the tumor cells. Fourteen days after tumor cell inoculation, the lungs were removed from the mice and the surface pulmonary metastases were counted.
B16-BL6 melanoma cells (5×10^4) were injected intravenously into the tail veins of C57B1/6 mice. The mice were given intraperitoneal (i.p.) treatments of one of the following solutions four times a day beginning 72 hours after injection of the tumor cells. [drawing 4] • 1.0 ml of thalidomide in 2.8% DMSO • 1.0 ml of 3′-hydroxy-2-phthalimidinoglutaric acid in 2.8% DMSO (compound 5a) • 1.0 ml of 4′-hydroxy-2-phthalimidinoglutaric acid in 2.8% DMSO (compound 5b) • 1.0 ml of 2-phthalimidinoglutaric acid (EM-138) in 2.8% DMSO (compound 5c) • 1.0 ml of DL-2-methyl-2-phthalimidinoglutaric acid (racemate) in 2.8% DMSO (compound 7) • 1.0 ml of (R)-(+)-2-methyl-2-phthalimidinoglutaric acid (JS-2-13-P1) in 2.8% DMSO (compound 7-R-(+)) • 1.0 ml of (S)-(−)-2-methyl-2-phthalimidinoglutaric acid (JS-2-13-P2) in 2.8% DMSO (compound 7-S-(−))
A dose of 0.4 mmol/kg was used for each compound tested. Fourteen days after tumor cell inoculation, the lungs were removed from the mice and the surface pulmonary metastases were counted.
This experiment was repeated at varying doses. The in the following table represent the average values for three of the experiment.

[2] = tested on: vascular endothelial cell proliferation; conditions: endothelial versus tumor cell proliferation in vitro; cited from earlier work
B16-BL6 melanoma cells [3] = assay: B16-BL6 melanoma pulmonary metastasis model, oral (gavage) treatment; assay type: in vivo, C57B1/6 mice
Experimental: B16-BL6 melanoma cells (5×10^4) were injected intravenously into the tail veins of C57B1/6 mice. Three days later, the mice received a gavage treatment with 0.8 mmol/kg of 2-phthalimidinoglutaric acid (EM-138). The mice received either a single treatment, five treatments on alternate days, or one treatment every day for eleven days. Fourteen days after tumor cell inoculation, the lungs were removed from the mice and the surface pulmonary metastases were counted. The values shown are the mean of 5 mice per group. The bars on the graph represent the standard deviation.
B16-BL6 melanoma cells (5×10^4) were injected intravenously into the tail veins of C57B1/6 mice. The mice were given a single oral treatment of 2-phthalimidinoglutaric acid (EM-138) of 0.8 mmol/kg. The treatment was initiated one day prior to tumor cells or on day 1, 2, 3, 5, or 7 after tumor cells. Fourteen days after tumor cell inoculation, the lungs were removed from the mice and the surface pulmonary metastases were counted. The values shown are the mean of 5 mice per group. The bars on the graph represent the standard deviation.

Resistance to hydrolysis = assay type: physicochemical; conditions: compared with thalidomide
[4] = Racemization of enantiomers; assay type: physicochemical

IC50 (50% inhibition of surface metastasis) (B16-BL6 melanoma cells [1])	Compound	T/C (ratio of lung metastases of treated vs. control animals) (B16-BL6 melanoma cells [1])	anti-tumor activity (summary in words) (B16-BL6 melanoma cells [1])	further results
0.2^a mmol/kg	CC(CCC(=O)O)(C(=O)O)N1Cc2ccccc2C1=O (racemic) [Compound 7, DL-2-methyl-2-phthalimidinoglutaric acid]	0.25	considerably greater inhibitory activity than thalidomide	angiogenesis inhibitory activity (comparison in words) (B16-BL6 melanoma cells [1]): as potent an inhibitor of angiogenesis as EM-138; Mean Number of Pulmonary Metastases (B16-BL6 melanoma cells [1]): 84; % Inhibition (B16-BL6 melanoma cells [1]): 60%
No activity^b	C[C@@](CCC(=O)O)(C(=O)O)N1Cc2ccccc2C1=O [7-R-(+), (R)-(+)-2-methyl-2-phthalimidinoglutaric acid]	0.7	little or no activity	–
0.1^a mmol/kg	C[C@](CCC(=O)O)(C(=O)O)N1Cc2ccccc2C1=O [7-S-(−), (S)-(−)-2-methyl-2-phthalimidinoglutaric acid]	0.15	–	angiogenesis inhibitory activity (comparison in words) (B16-BL6 melanoma cells [1]): greater angiogenesis inhibitory activity than does the (R) isomer
–	CO[C@@H]1[C@H](OC(=O)NC(=O)CCl)CC[C@]2(CO2)[C@H]1[C@@]1(C)O[C@@H]1CC=C(C)C [AGM-1470]	–	–	half-maximal inhibition of endothelial cell proliferation at lower concentration than tumor cell proliferation [2]: 4 logs
–	O=C(O)CCC(C(=O)O)N1C(=O)c2ccccc2C1O (centres unmarked) [Compound 5a, 3′-hydroxy-2-phthalimidinoglutaric acid]	0.95	–	–
–	O=C(O)CCC(C(=O)O)N1Cc2c(O)cccc2C1=O (centres unmarked) [Compound 5b, 4′-hydroxy-2-phthalimidinoglutaric acid]	0.9	–	–
0.2^a mmol/kg	O=C(O)CCC(C(=O)O)N1Cc2ccccc2C1=O (centres unmarked) [Compound 5c, 2-phthalimidinoglutaric acid]	0.2	considerably greater inhibitory activity than thalidomide	inhibition of metastasis (B16-BL6 melanoma cells [3]; dose of 0.8 mmol/kg/day): greater than 90%; inhibition of metastasis (B16-BL6 melanoma cells [3]; single dose): 50%; Mean Number of Pulmonary Metastases (B16-BL6 melanoma cells [1]): 85; % Inhibition (B16-BL6 melanoma cells [1]): 60%; resistance to hydrolysis (Resistance to hydrolysis): relatively resistant to hydrolysis; racemization of enantiomers [4]: readily racemize
3.2^a mmol/kg	O=C1CCC(N2C(=O)c3ccccc3C2=O)C(=O)N1 (centres unmarked) [Thalidomide, thalidomide, reference compound]	0.9	–	–
